These results are taken from PubChem BioAssay (NCI).

Test systems include UO-31 renal; HOP-92 NSCLC; SF-539 CNS; DU-145 prostate; RPMI-8226 leukemia; HS 578T breast; HCT-116 colon; OVCAR-5 ovarian; MOLT-4 leukemia; K-562 leukemia.
Assay in all cases: NCI-60 cell line screen, 48 h

Several values for one entry are separate records, joined by “and”; a condition that tells them apart may be missing. Equal entries are not always repeated.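 Cells were grown in 96-well plates and exposed to each compound for 48 hours at five concentrations; endpoints were interpolated linearly between bracketing concentrations, or set to the highest concentration if not reached. The concentration for 50% growth inhibition is given as GI50. TGI marks complete inhibition of growth.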 Where only a bound is given, the exact number is not on record here.

Take `CCCCCCCCn1ccc2cc(NC(=O)Cn3cc(CN4CCCCCC4)nn3)ccc21`: the GI50 in the assay on UO-31 renal was 1.48 µM; in the assay on HOP-92 NSCLC it was 1.26 µM; in the assay with SF-539 CNS it was 1.76 µM; in the assay with DU-145 prostate, 1.97 µM; in the assay on RPMI-8226 leukemia, 1.94 µM; with HS 578T breast, 1.91 µM. The GI50 is 1.66 µM in the assay on HCT-116 colon, 1.82 µM in the assay on OVCAR-5 ovarian, 2.05 µM in the assay on MOLT-4 leukemia and 1.67 µM in the assay on K-562 leukemia. Moreover, the TGI in the assay with UO-31 renal came to 2.81 µM; in the assay with HOP-92 NSCLC, 2.61 µM; in the assay on SF-539 CNS, 3.21 µM; in the assay with DU-145 prostate, 3.81 µM; with RPMI-8226 leukemia, 4.31 µM; with HS 578T breast it was 4.16 µM. The TGI worked out at 3.1 µM with HCT-116 colon, 3.86 µM in the assay with OVCAR-5 ovarian, 5.08 µM in the assay on MOLT-4 leukemia and 3.6 µM with K-562 leukemia.

With `COCCOC(=O)C1=C(O)c2ccccc2S(=O)(=O)N1C`, the TGI in the assay with UO-31 renal, in the assay on HOP-92 NSCLC, with SF-539 CNS, with DU-145 prostate, with RPMI-8226 leukemia and in the assay with HS 578T breast was greater than 100 µM in each case. In addition, the TGI with HCT-116 colon, with OVCAR-5 ovarian, with MOLT-4 leukemia and with K-562 leukemia was greater than 100 µM each time.

Turning to `O=C(O)c1ccc(CN2CCC(CN[C@@H]3C[C@H]3c3ccccc3)CC2)cc1`, the GI50 with UO-31 renal, in the assay on HOP-92 NSCLC, in the assay with SF-539 CNS, with DU-145 prostate, with RPMI-8226 leukemia and in the assay on HS 578T breast was greater than 100 µM in each case. In addition, the GI50 with HCT-116 colon, with OVCAR-5 ovarian, with MOLT-4 leukemia and in the assay on K-562 leukemia was greater than 100 µM in each case. Moreover, the TGI in the assay with UO-31 renal, with HOP-92 NSCLC, with SF-539 CNS, in the assay with DU-145 prostate, with RPMI-8226 leukemia and with HS 578T breast was greater than 100 µM throughout. Also, the TGI in the assay on HCT-116 colon, in the assay on OVCAR-5 ovarian, in the assay on MOLT-4 leukemia and with K-562 leukemia was greater than 100 µM throughout.

As to `Nc1ncnc2c1ncn2C1C=C(CO)C(O)C1O` (stereo not drawn), the TGI in the assay with UO-31 renal was 19.9 µM; in the assay with HOP-92 NSCLC it was greater than 76.1 µM; with SF-539 CNS it was greater than 91.1 µM; in the assay with DU-145 prostate, 35.8 µM; with RPMI-8226 leukemia, greater than 37 µM; in the assay on HS 578T breast it was greater than 100 µM. Besides, the TGI in the assay with HCT-116 colon is 12.6 µM; in the assay with OVCAR-5 ovarian, greater than 100 µM; with MOLT-4 leukemia, 30.9 µM; in the assay with K-562 leukemia, 39.6 µM.

As for `COc1ccc(C(C#N)NC23CC4CC(CC(C4)C2)C3)cc1` (stereo not drawn), the TGI in the assay on UO-31 renal, in the assay on HOP-92 NSCLC, with SF-539 CNS, with DU-145 prostate, with RPMI-8226 leukemia and in the assay on HS 578T breast was greater than 100 µM in each case. In addition, the TGI in the assay on HCT-116 colon, with OVCAR-5 ovarian, with MOLT-4 leukemia and in the assay on K-562 leukemia was greater than 100 µM throughout.

Consider `Cc1ccc(C)c(NC(=O)CC2Sc3ccccc3NC2=O)c1` (stereo not drawn), for which the GI50 was 14.5 µM and 30 µM in the assay on UO-31 renal; 15.9 µM and 36.9 µM in the assay on HCT-116 colon; 46.5 µM and > 100 µM in the assay with OVCAR-5 ovarian. In addition, the TGI in the assay on UO-31 renal is 23 µM and 55.7 µM; in the assay with HOP-92 NSCLC, 16.9 µM and 42.5 µM; in the assay on SF-539 CNS, 41.2 µM and 68.8 µM; in the assay with DU-145 prostate, greater than 100 µM; with RPMI-8226 leukemia it was greater than 100 µM; in the assay with HS 578T breast, greater than 75.2 µM. In addition, the TGI in the assay on HCT-116 colon was 25.2 µM and > 94.5 µM; in the assay with OVCAR-5 ovarian, greater than 100 µM; in the assay on MOLT-4 leukemia, greater than 100 µM; with K-562 leukemia, greater than 100 µM.

As to `O=C(O)CSCCc1ccccc1`, the TGI in the assay with UO-31 renal, in the assay on HOP-92 NSCLC, in the assay on SF-539 CNS, in the assay with DU-145 prostate, in the assay on RPMI-8226 leukemia and in the assay with HS 578T breast was greater than 100 µM each time. In addition, the TGI with HCT-116 colon, with OVCAR-5 ovarian, with MOLT-4 leukemia and with K-562 leukemia was greater than 100 µM each time.

Regarding `Nc1n[nH]c2cccc(C#Cc3cccc(NC(=O)c4cccc(C(F)(F)F)c4)c3)c12`, the GI50 in the assay on UO-31 renal was 2.29 µM; in the assay with HOP-92 NSCLC, 1.9 µM; in the assay with SF-539 CNS, 1.19 µM; in the assay with DU-145 prostate it was 5.69 µM; with RPMI-8226 leukemia, 3.44 µM; in the assay on HS 578T breast it was 1.96 µM. The GI50 was 0.855 µM with HCT-116 colon, 2.21 µM with OVCAR-5 ovarian, 2.21 µM in the assay with MOLT-4 leukemia and 0.19 µM in the assay with K-562 leukemia. In addition, the TGI was 9.45 µM in the assay with UO-31 renal; 5.24 µM with HOP-92 NSCLC; 3.47 µM in the assay with SF-539 CNS; 17.6 µM in the assay with DU-145 prostate; 21.5 µM in the assay on RPMI-8226 leukemia; 6.09 µM in the assay on HS 578T breast. In addition, the TGI with HCT-116 colon stood at 4.61 µM; with OVCAR-5 ovarian, 14 µM; in the assay on MOLT-4 leukemia, 13.3 µM; in the assay on K-562 leukemia, 11.1 µM.

`CS(=O)(=O)CCNCc1coc(-c2ccc3ncnc(Nc4ccc(OCc5ccccc5)cc4)c3c2)c1`: the GI50 with UO-31 renal is 2.86 µM; with HOP-92 NSCLC it was 2.62 µM; with SF-539 CNS, 4.25 µM; in the assay with DU-145 prostate it was 3.75 µM; in the assay on RPMI-8226 leukemia, 4.86 µM; with HS 578T breast it was 2.45 µM. Moreover, the GI50 in the assay with HCT-116 colon was 3.88 µM; in the assay with OVCAR-5 ovarian it was 4.22 µM; in the assay with MOLT-4 leukemia it was 5.2 µM; with K-562 leukemia, 4.54 µM. Besides, the TGI with UO-31 renal was 6.95 µM; in the assay with HOP-92 NSCLC, 17.3 µM; with SF-539 CNS it was 8.82 µM; in the assay on DU-145 prostate, greater than 25 µM; in the assay with RPMI-8226 leukemia, 11.6 µM; in the assay with HS 578T breast, 7.66 µM. Further, the TGI with HCT-116 colon amounted to 7.53 µM; with OVCAR-5 ovarian, 11.7 µM; in the assay with MOLT-4 leukemia, 16.3 µM; in the assay with K-562 leukemia, 11 µM.

For `C=C(C)[C@@H]1CC[C@]2(COCCCN)CC[C@]3(C)[C@H](CC[C@@H]4[C@@](C)(CCCNCCCN)[C@H](C(=C)C)CC[C@]43C)[C@@H]12`, the GI50 was 1.43 µM in the assay with UO-31 renal; 1.36 µM in the assay with HOP-92 NSCLC; 1.76 µM in the assay on SF-539 CNS; 1.92 µM in the assay with DU-145 prostate; 2.2 µM in the assay with RPMI-8226 leukemia; 2.16 µM in the assay on HS 578T breast. Besides, the GI50 is 1.45 µM in the assay with HCT-116 colon, 1.71 µM with OVCAR-5 ovarian, 1.96 µM in the assay on MOLT-4 leukemia and 1.67 µM with K-562 leukemia. Further, the TGI with UO-31 renal was found to be 2.77 µM; in the assay with HOP-92 NSCLC it was 2.84 µM; in the assay on SF-539 CNS, 3.21 µM; in the assay with DU-145 prostate, 3.43 µM; in the assay on RPMI-8226 leukemia, 5.08 µM; in the assay on HS 578T breast, 5.54 µM. In addition, the TGI amounted to 2.84 µM in the assay on HCT-116 colon, 3.12 µM in the assay on OVCAR-5 ovarian, 4.47 µM in the assay on MOLT-4 leukemia and 3.57 µM in the assay on K-562 leukemia.
